Experimental data taken from US20200338112A1, “METHODS AND MATERIALS FOR TREATING CANCER” (Mayo Foundation for Medical Education and Research, priority 2018, published 2020).
Entries after “also recorded” stand apart in the source; their conditions may differ. Where a SMILES comes first, the peptide text is derived from it. The star is where a group is joined. Cbz = O=C(OCc1ccccc1)*

How the values were obtained:
[1] = system: NBS1 protein level in MDA-MB-231 cells; assay: Western blot of NBS1 protein level after MG132 treatment; format: cell-based; conditions: MG132 10 μM for six hours; PD-L1 depleted MDA-MB-231 cells; FIG. 3c
Protocol: FIGS. 3a and 3b contain western blot analyses of BRCA1, NBS1, RAD50, MRE11, and PD-L1 in HCT116 and MDA-MB-231 cells, respectively, that were infected with lentiviral control shRNA or two different shRNAs targeting PD-L1. GAPDH was used as a loading control. FIG. 3c contains a western blot of NBS1 protein levels in MDA-MB-231 cells infected with lentivirus control shRNA or two different shRNAs targeting PD-L1 were treated with DMSO (control) or MG132 (10 μM) for six hours before proteins were harvested. GAPDH and p53 were used as loading and positive control, respectively. […] GAPDH was used for normalization. FIGS. 3e, 3f, and 3g assess HCT116 cells treated with the transcription inhibitor actinomycin D (5 μg/mL). NBS1 mRNA levels were quantified using RT-PCR. Knockdown of PD-L1 in HCT116 decreased the half-life of NBS1 and BRCA1 mRNA, while restoring PD-L1 in the knockdown cells rescued the phenotype (±s.e.m., n=3). GAPDH was used for normalization. […] The change of NBS1 and BRCA1 mRNA level was not due to transcription, since the transcription of BRCA1 was not changed, while the transcription of NBS1 was even increased after PD-L1 was knocked down (±s.e.m., n=3). GAPDH was used for normalization. FIG. 3i contains representative pictures of the subcellular localization of PD-L1. The immunofluorescence was performed in HCT116 cells. […]

cells = assay: Colony formation of cells pretreated with durvalumab, then IR; format: cell-based; conditions: durvalumab 10 μg/mL, 24 hours before IR, FIG. 1f
Protocol: FIG. 1a contains colony formation experiments of HCT116 cells under either ionizing radiation (IR) (0, 2, 4 Gy) or cisplatin (0, 0.5, 1 and 2 μM) treatment. […] FIG. 1b contains knockdown and overexpression efficiency validation of PD-L1 in HCT116 using western blot; glyceraldehyde 3-phosphate dehydrogenase (GAPDH) was used as a loading control. […] The formation of rH2AX foci was sustained in PD-L1 depletion group compared to control group, data is represented as mean±s.e.m for each view. FIG. 1e contains an assessment of wild-type (+/+, n=16), PD-L1 heterozygous (+/−, n=24), and PD-L1 knockout (−/−, n=16) BALB/C mice that were exposed to whole body irradiation (7 Gy). Comparisons between groups were made using the Log-rank test. […] Result were based upon colony formation (±s.e.m., n=3).

Compound | recovery of NBS1 protein level in PD-L1 depleted cells [1] | sensitization of cells to IR (DNA damage stimulation) (cells)
CC(C)C[C@@H](C=O)NC(=O)[C@H](CC(C)C)NC(=O)[C@H](CC(C)C)NC(=O)OCc1ccccc1 [MG132] (Cbz-Leu-Leu-Leu-aldehyde) | did not recover | 
durvalumab |  | did not sensitize cells to DNA damage stimulation; also recorded: did not sensitize cells to IR
